Experiments:
[1] = system: rhIL-2 stimulated STAT5 phosphorylation in isolated human T cells; assay: Human T Cell Assay: Inhibition of pSTAT5; format: cell-based
Procedure: Human T Cell Assay: Inhibition of pSTAT5
An assay measuring the efficacy of JAK inhibitors on the functional response of recombinant human interleukin-2 (rhIL-2) stimulated STAT5 phosphorylation in isolated human T cells.
Human whole blood from individual donors was collected from the phlebotomy unit on-site. Peripheral venous blood (30-60 mL) from healthy volunteers of either sex was used as the source of T cells. T cell isolation from venous whole blood is routinely performed in a class II microbiological safety cabinet. Each sample was collected into between 3 and 6 10 mL Sodium Heparin Vacutainer tubes (BD #367874). The blood was poured into sterile 50 mL conicals (Corning #430828) and incubated with the T cell Rosette Sep Cocktail (Stemcell Technologies #15061) at 50 μL/mL antibody/blood ratio for 20 min. with shaking at room temperature. The blood/antibody mixture was then diluted 1:2 with PBS (Pfizer media prep)/2% FBS (Sigma #F4135) and 30 mL of the mixture was layered onto 15 mL Ficoll-Hypaque (GE Healthcare #17-1440-03) in 50 mL conical tubes. The tubes were then centrifuged at 1200×g for 20 min. at room temperature with no brake. Following centrifugation the T cells formed a buffy coat between the Ficoll-Hypaque and plasma layers. The plasma above the buffy coats was removed to within 5 mm of the buffy coat using a sterile Pasteur pipette. The buffy coats were then collected into fresh sterile 50 mL conical tubes containing 25 mL PBS/2% FBS (2 buffy coats per 50 mL conical). PBS/2% FBS was added to the buffy coat cells such that the final volume in the tube was 50 mL. The tubes were then centrifuged at 200×g for 15 min. at room temperature. The supernatant was discarded and the pellet re-suspended in 10-20 mL of DMEM (Pfizer media prep) Assay media/0.2% BSA (Miltenyi #130-091-376). A differential cell count was performed using a haemacytometer and cells were diluted to 1.1×10^6 T cells/ml in DMEM/0.2% BSA media. Compounds (10 mM-0.3 μM) were diluted with Hanks Balanced Salt Solution (HBSS) (Sigma #H6648) at 1:100 dilution. Immediately following cell isolation and compound dilution, 90 μl/well of T cells (˜1×10^6/ml) in assay medium (DMEM+0.2% BSA) was added to the VWR Deep well V bottom plate (#3906-520-300). 10 μl/well of compound (final concentration range of 10 μM-0.3 nM with 0.1% DMSO) or 0.1% DMSO in HBSS as controls was added to the appropriate wells. Plates were incubated for 1 hour at 37° C., 5% CO2 incubator. 10 μl of 3.3 μg/mL rhIL-2 (R&D Systems #202-IL) was added to the cells (300 ng/ml final assay concentration). Wells containing T cells, medium with 0.1% DMSO and no rhIL-2 were used as background controls. Plates were incubated for 15 min at 37° C. After rhIL-2 stimulation, 800 μL of cold PBS/0.1% BSA was added and the plates were centrifuged at 1400 rpm for 5 min at 4° C. Supernatant was aspirated and 100 μL of ice-cold MSD lysis buffer containing protease and phosphatase inhibitors from Phospho-STAT5a/b Tyr694 assay kit (Meso-Scale Discovery #K150IGD) was added to the cell pellet. Plates were shaken for 30 min. at 4° C. and then frozen overnight. The following day, cell lysates were assayed using the MSD ELISA kit protocol for detection of pSTAT5.
Data were collected and transformed into percent inhibition and calculated using the following formula: […]

JAK1 = JAK1 (Homo sapiens (Human), UniProt P23458); assay: JAK Caliper Enzyme Assay at 1 mM ATP (JAK1); format: biochemical; settings: Caliper assay at 1 mM ATP
JAK1, sequence (P23458 whole entry): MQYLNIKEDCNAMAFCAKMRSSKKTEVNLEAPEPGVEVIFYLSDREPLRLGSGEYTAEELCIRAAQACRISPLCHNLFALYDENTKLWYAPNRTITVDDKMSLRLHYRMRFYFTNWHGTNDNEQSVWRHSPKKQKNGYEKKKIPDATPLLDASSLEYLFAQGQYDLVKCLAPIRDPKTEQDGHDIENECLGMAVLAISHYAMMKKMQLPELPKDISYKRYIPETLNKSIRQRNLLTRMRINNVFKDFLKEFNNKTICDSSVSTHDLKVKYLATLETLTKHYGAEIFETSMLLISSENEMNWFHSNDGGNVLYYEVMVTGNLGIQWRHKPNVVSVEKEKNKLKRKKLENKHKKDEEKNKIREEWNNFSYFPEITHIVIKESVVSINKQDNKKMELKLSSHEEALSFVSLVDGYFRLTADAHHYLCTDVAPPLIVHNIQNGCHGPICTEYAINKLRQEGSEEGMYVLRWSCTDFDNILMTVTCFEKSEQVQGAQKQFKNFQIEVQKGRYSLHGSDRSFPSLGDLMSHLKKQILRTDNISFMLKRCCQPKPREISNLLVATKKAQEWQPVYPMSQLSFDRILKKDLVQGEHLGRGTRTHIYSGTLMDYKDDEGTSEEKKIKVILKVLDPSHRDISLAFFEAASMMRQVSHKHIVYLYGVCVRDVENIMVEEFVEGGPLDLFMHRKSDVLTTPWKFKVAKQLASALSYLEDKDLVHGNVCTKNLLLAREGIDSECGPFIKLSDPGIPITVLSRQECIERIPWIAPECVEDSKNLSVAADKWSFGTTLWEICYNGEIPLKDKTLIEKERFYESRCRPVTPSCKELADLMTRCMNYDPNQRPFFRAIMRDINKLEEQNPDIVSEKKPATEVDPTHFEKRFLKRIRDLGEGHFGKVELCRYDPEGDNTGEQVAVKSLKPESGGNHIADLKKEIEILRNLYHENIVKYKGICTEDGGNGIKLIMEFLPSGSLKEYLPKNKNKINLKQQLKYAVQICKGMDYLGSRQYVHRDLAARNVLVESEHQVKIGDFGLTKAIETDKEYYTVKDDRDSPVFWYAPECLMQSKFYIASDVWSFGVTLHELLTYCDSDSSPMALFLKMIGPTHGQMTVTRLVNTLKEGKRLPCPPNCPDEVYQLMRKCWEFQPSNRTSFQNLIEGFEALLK

JAK3 = JAK3 (Homo sapiens (Human), UniProt P52333); assay: JAK Caliper Enzyme Assay at 1 mM ATP (JAK3); format: biochemical; settings: Caliper assay at 1 mM ATP
JAK3, sequence (P52333 whole entry): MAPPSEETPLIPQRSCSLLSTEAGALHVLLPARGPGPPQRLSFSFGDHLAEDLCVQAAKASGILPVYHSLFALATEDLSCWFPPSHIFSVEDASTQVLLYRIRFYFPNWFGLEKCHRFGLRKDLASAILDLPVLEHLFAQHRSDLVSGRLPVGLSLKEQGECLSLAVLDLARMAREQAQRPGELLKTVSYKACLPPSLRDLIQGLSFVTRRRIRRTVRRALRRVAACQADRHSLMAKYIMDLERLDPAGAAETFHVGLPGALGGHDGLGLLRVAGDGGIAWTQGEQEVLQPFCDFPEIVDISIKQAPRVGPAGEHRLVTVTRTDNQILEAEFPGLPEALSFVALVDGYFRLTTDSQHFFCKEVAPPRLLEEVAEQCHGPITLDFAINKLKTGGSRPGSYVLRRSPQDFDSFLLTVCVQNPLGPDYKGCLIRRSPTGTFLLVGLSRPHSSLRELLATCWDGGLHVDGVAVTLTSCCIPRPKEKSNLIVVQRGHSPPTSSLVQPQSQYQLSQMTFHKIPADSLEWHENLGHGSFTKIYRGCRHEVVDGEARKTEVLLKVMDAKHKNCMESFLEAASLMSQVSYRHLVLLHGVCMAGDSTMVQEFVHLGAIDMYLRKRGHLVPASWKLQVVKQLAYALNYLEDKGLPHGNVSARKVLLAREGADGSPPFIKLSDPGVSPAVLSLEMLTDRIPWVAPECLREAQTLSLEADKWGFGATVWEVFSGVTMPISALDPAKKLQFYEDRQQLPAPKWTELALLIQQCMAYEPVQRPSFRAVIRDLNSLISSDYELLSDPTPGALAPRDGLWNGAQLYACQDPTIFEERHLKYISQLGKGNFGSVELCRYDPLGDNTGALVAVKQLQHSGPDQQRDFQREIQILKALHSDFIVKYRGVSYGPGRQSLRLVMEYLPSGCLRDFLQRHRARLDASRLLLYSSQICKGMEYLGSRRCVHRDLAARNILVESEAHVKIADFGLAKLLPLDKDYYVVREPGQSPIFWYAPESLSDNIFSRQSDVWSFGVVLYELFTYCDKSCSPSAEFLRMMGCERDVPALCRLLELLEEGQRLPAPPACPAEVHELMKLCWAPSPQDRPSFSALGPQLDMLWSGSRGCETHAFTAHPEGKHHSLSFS

TYK2 = TYK2 (Homo sapiens (Human), UniProt P29597); assay: JAK Caliper Enzyme Assay at 1 mM ATP (TYK2); format: biochemical; settings: Caliper assay at 1 mM ATP
TYK2, sequence (P29597 whole entry): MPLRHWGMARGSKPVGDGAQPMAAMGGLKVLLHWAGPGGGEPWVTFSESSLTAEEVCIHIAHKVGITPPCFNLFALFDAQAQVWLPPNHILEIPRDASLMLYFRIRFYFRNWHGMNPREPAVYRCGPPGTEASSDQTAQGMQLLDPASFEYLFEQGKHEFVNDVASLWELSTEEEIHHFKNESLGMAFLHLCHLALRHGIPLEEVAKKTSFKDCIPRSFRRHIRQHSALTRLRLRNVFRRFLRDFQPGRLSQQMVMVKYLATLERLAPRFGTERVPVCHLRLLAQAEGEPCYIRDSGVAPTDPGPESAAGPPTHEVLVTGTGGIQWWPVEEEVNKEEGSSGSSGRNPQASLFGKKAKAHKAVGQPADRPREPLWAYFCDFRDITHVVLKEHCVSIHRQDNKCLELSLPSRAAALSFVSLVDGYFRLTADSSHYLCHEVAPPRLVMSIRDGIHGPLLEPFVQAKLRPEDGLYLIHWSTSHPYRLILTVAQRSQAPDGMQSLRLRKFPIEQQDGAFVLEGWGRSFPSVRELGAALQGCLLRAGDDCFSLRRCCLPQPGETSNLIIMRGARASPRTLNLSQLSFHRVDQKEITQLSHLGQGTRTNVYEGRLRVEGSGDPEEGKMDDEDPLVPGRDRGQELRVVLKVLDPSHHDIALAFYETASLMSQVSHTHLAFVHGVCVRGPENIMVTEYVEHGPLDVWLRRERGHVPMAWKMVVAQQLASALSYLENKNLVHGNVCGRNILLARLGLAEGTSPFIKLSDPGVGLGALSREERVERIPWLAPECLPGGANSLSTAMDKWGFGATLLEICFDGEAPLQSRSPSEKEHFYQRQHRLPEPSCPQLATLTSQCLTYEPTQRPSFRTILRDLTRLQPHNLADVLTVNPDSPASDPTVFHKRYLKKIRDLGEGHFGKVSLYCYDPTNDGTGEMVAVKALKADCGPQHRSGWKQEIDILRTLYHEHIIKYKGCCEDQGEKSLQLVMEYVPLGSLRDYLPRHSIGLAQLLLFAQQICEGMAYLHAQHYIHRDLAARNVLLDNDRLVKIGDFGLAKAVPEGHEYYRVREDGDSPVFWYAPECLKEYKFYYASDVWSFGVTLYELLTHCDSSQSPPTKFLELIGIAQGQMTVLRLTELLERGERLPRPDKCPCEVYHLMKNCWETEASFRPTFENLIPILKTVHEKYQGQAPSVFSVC

JAK2 = JAK2 (Homo sapiens (Human), UniProt O60674); assay: JAK Caliper Enzyme Assay at 1 mM ATP (JAK2); format: biochemical; settings: Caliper assay at 1 mM ATP
JAK2, sequence (O60674 whole entry): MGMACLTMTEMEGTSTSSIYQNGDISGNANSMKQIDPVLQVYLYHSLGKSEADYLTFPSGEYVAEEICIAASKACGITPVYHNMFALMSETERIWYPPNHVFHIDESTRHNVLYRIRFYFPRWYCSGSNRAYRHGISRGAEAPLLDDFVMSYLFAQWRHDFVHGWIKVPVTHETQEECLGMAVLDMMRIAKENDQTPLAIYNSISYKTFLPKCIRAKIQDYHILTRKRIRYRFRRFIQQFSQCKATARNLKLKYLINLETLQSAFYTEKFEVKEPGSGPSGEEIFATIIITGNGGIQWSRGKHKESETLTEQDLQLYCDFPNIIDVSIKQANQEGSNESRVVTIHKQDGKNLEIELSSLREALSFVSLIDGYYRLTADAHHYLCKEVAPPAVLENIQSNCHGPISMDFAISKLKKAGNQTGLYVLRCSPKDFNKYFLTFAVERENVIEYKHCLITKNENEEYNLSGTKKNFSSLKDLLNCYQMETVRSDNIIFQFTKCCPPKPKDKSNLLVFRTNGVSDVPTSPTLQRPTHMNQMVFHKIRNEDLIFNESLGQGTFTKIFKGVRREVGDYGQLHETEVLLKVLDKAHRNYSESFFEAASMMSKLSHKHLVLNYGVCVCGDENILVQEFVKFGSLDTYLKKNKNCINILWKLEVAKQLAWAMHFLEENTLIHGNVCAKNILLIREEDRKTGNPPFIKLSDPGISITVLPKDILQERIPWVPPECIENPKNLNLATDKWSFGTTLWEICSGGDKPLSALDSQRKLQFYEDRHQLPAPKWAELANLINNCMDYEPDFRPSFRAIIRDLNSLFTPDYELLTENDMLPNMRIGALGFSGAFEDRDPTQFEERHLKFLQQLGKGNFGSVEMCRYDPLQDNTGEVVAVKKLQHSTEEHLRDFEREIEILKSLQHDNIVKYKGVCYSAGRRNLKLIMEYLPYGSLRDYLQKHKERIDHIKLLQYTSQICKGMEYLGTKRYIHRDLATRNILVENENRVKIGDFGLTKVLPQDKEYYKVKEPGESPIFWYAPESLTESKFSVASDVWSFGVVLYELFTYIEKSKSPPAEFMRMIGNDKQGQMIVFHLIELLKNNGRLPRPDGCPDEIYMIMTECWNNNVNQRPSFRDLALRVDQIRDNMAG

[2] = system: rhIFNγ stimulated STAT-3 phosphorylation in the A549 human epithelial cell line; assay: A549 Cell Assay: Inhibition of pSTAT3; format: cell-based; settings: Homo sapiens; A549 cells
How it was run: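 A549 cells cultured 18 h were preincubated 1 h at 37° C with compound (0.3 nM to 10 μM, 0.1% DMSO) in DMEM with 0.2% BSA, then stimulated with 20 ng/mL rhIFNγ for 30 min. pSTAT3 Tyr705 in the lysates was measured by MSD immunoassay and expressed as percent inhibition.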

Compound: CNC(=O)c1n[nH]c2cc(-c3cc(F)c(O)cc3CC(F)(F)F)nc(NCc3ccccc3N(C)S(C)(=O)=O)c12 [Example 20, 6-[5-fluoro-4-hydroxy-2-(2,2,2-trifluoroethyl)phenyl]-N-methyl-4-({2-[methyl(methylsulfonyl)amino]benzyl}amino)-1H-pyrazolo[4,3-c]pyridine-3-carboxamide]
- IC50 [1]: 0.0319 µM
- IC50 (JAK1): 0.0036 µM
- IC50 (JAK3): 0.0953 µM
- IC50 (TYK2): 0.0209 µM
- IC50 (JAK2): 0.0166 µM
- IC50 [2]: 0.0188 µM

From patent publication US10022376B2 (Pfizer Inc., priority 2014, dated 2018)
